From ChEMBL document CHEMBL1152119, “4-(3-furyl)-2-(4-methylpiperazino)pyrimidines: Potent 5-HT2A receptor antagonists” (Bioorg Med Chem Lett, 1997) come the findings set out here.

Active and inactive are the calls of the source. The rule behind the calls is not given here.

Test [1] concerns the target 5-hydroxytryptamine receptor 2A (Rattus norvegicus, UniProt P14842). As to the kind of experiment: Displacement of [3H]ketanserin from 5-hydroxytryptamine 2A receptor of rat brain cortex. On the technique in general: In a radioligand displacement assay an active substance lowers the binding of a labelled ligand.
Test [2] has as its system Mus musculus. As to the kind of experiment: Inhibitory dose against (+/-)DOI induced (2.5 mg/kg, ip) head twitch response in mice. As to conditions: read-out: ID50 (the source's name). In kind it is functional.
For test [3], the system named is Rattus norvegicus. In words: Percent activity for blocking of discriminative property stimulated by (+/-) DOI in rats at 10 mg/kg(+/-DOI 0.35 mg/kg administered to animals pretreated with compound). The format is functional.
Test [4] deals with Rattus norvegicus. As to the kind of experiment: Percent activity for blocking of discriminative property stimulated by (+/-) DOI in rats at 5 mg/kg(+/-DOI 0.35 mg/kg administered to animals pretreated with compound). In kind it is functional.
The subject of test [5] is Rattus norvegicus. In words: Number of responding rats/number of rats to receive the compound at a dose of 5 mg/kg, +/-DOI 0.35 mg/kg was administered intraperitoneally 60 min before test; 9/9. The format is functional, organism-based.
Test [6] has as its system Rattus norvegicus. As to the kind of experiment: Number of responding rats/number of rats to receive the compound at a dose of 10mg/kg, +/-DOI 0.35 mg/kg was administered intraperitoneally 60 min before test; 6/6. Also noted: dose 0.35 mg/kg. In kind it is functional, organism-based.
Test [7] relates to Rattus norvegicus. As to the kind of experiment: Blocking of discriminative property stimulated by DOI in rats at 10 mg/kg dose, activity expressed as response/min(+/-DOI 0.35 mg/kg administered to animals pretreated with compound). The format is functional.
The subject of test [8] is Rattus norvegicus. As to the kind of experiment: Blocking of discriminative property stimulated by DOI in rats at 5 mg/kg dose, activity expressed as response/min(+/-DOI 0.35 mg/kg administered to animals pretreated with compound). In kind it is functional.
For test [9], the target named is T1, 5-hydroxytryptamine receptor 1A (Rattus norvegicus, UniProt P19327).
T1 sequence (P19327 whole entry): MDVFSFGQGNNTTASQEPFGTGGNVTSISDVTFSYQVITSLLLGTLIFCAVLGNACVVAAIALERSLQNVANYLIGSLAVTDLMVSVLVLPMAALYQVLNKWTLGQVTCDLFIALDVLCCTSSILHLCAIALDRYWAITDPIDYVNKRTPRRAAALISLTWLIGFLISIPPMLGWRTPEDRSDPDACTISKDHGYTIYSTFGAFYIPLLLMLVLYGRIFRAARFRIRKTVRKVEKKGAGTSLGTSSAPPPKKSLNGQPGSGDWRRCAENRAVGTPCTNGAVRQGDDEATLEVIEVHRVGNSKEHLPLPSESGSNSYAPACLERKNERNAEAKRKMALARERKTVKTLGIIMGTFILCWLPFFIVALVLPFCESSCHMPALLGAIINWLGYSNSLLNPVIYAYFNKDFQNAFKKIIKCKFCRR
As to the kind of experiment: Displacement of [3H]8-OH-DPAT binding to 5-hydroxytryptamine 1A receptor of rat brain hippocampus. The format is tissue-based.

In test [10] the test system is Rattus norvegicus. In words: Percent activity for blocking of discriminative property stimulated by (+/-) DOI in rats at 20 mg/kg(+/-DOI 0.35 mg/kg administered to animals pretreated with compound). The format is functional.
The test system of test [11] is Rattus norvegicus. In words: Number of responding rats/number of rats to receive the compound at a dose of 20 mg/kg, +/-DOI 0.35 mg/kg was administered intraperitoneally 60 min before test; 6/6. In kind it is functional, organism-based.
Test [12] has as its system Rattus norvegicus. In words: Blocking of discriminative property stimulated by DOI in rats at 20 mg/kg dose, activity expressed as response/min(+/-DOI 0.35 mg/kg administered to animals pretreated with compound). In kind it is functional.
The test system of test [13] is Rattus norvegicus. In words: Percent activity for blocking of discriminative property stimulated by (+/-) DOI in rats at 1 mg/kg(+/-DOI 0.35 mg/kg administered to animals pretreated with compound). The format is functional.
In test [14] the test system is Rattus norvegicus. As to the kind of experiment: Number of responding rats/number of rats to receive the compound at a dose of 1 mg/kg, +/-DOI 0.35 mg/kg was administered intraperitoneally 60 min before test; 9/9. The format is functional, organism-based.
The subject of test [15] is Rattus norvegicus. In words: Blocking of discriminative property stimulated by DOI in rats at 1 mg/kg dose, activity expressed as response/min(+/-DOI 0.35 mg/kg administered to animals pretreated with compound). The format is functional.
Test [16] has as its system Rattus norvegicus. In words: Percent activity for blocking of discriminative property stimulated by (+/-) DOI in rats at 0.25 mg/kg(+/-DOI 0.35 mg/kg administered to animals pretreated with compound). The format is functional.
Test [17] relates to Rattus norvegicus. In words: Percent activity for blocking of discriminative property stimulated by (+/-) DOI in rats at 0.35 mg/kg(+/-DOI 0.35 mg/kg administered to animals pretreated with compound). The format is functional.
For test [18], the system named is Rattus norvegicus. As to the kind of experiment: Percent activity for blocking of discriminative property stimulated by (+/-) DOI in rats at 0.15 mg/kg(+/-DOI 0.35 mg/kg administered to animals pretreated with compound). In kind it is functional.
Test [19] has as its system Rattus norvegicus. In words: Blocking of discriminative property stimulated by DOI in rats at 0.25 mg/kg dose, activity expressed as response/min(+/-DOI 0.35 mg/kg administered to animals pretreated with compound). In kind it is functional.
The test system of test [20] is Rattus norvegicus. In words: Blocking of discriminative property stimulated by DOI in rats at 0.35 mg/kg dose, activity expressed as response/min(+/-DOI 0.35 mg/kg administered to animals pretreated with compound). In kind it is functional.
Test [21] has as its system Rattus norvegicus. As to the kind of experiment: Blocking of discriminative property stimulated by DOI in rats at 0.15 mg/kg dose, activity expressed as response/min(+/-DOI 0.35 mg/kg administered to animals pretreated with compound). The format is functional.
Test [22] relates to Rattus norvegicus. As to the kind of experiment: Number of responding rats/number of rats to receive the compound at a dose of 10 mg/kg, +/-DOI 0.35 mg/kg was administered intraperitoneally 60 min before test; 8/8. The format is functional, organism-based.
For test [23], the system named is Rattus norvegicus. As to the kind of experiment: Number of responding rats/number of rats to receive the compound at a dose of 10 mg/kg, +/-DOI 0.35 mg/kg was administered intraperitoneally 60 min before test; 7/7. The format is functional, organism-based.
The subject of test [24] is Rattus norvegicus. In words: Percent activity for blocking of discriminative property stimulated by (+/-) DOI in rats at 15 mg/kg(+/-DOI 0.35 mg/kg administered to animals pretreated with compound). The format is functional.
For test [25], the system named is Rattus norvegicus. In words: Number of responding rats/number of rats to receive the compound at a dose of 15mg/kg, +/-DOI 0.35 mg/kg was administered intraperitoneally 60 min before test; 7/7. In kind it is functional, organism-based. Also noted: dose 0.35 mg/kg.
Test [26] has as its system Rattus norvegicus. In words: Blocking of discriminative property stimulated by DOI in rats at 15 mg/kg dose, activity expressed as response/min(+/-DOI 0.35 mg/kg administered to animals pretreated with compound). In kind it is functional.

Chain of 5-hydroxytryptamine receptor 2A (P14842 whole entry): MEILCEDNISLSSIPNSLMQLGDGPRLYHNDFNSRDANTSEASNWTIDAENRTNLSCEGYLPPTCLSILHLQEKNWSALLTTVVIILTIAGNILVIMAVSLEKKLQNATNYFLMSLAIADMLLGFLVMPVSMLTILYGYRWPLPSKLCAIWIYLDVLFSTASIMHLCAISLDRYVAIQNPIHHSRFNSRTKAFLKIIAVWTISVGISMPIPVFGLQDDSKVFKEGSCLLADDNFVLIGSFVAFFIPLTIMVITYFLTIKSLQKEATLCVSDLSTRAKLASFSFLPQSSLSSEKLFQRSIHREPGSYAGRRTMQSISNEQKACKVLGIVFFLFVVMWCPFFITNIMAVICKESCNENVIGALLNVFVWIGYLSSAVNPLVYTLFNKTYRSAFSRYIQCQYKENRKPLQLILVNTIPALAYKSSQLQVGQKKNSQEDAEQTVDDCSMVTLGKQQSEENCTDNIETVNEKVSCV

What is called Ki is a dissociation constant, usually derived from enzyme kinetics or from competition with a known ligand. Low readings indicate a stronger hold on the target, high ones a looser hold on the target. Turning to `CN1CCN(c2nc(-c3ccoc3)cc(-c3ccoc3)n2)CC1`, the Ki is 8 nM in test [1] and 621 nM in [9]. The ED50 in test [2] came to 2.4 mg/kg. Besides, the values for the Activity in test [3] and in test [4] were 2.8% and 31.1%, respectively. Moreover, the No. of animals entry in test [5] and in test [6] was “Active” throughout. For the same compound, the Response in [7] amounted to 72.5 min⁻¹; in [8], 84.3 min⁻¹.

Consider `CN1CCN(c2nccc(-c3ccoc3)n2)CC1`, for which the Ki was 10 nM in test [1] and 700 nM in [9]. For the same compound, the ED50 in test [2] was found to be 9.7 mg/kg. Besides, the Activity in [10] was determined as 6.6%. Besides, the No. of animals result in [11] was “Active”. In addition, the Response in test [12] is 84.7 min⁻¹.

Turning to `CN1CCN(c2nccc(-c3ccccc3)n2)CC1`, the results for the Ki in test [1] and in test [9] were 2100 nM and 613 nM, respectively.

For the compound `CN1CCC(=C2c3ccccc3C=Cc3ccccc32)CC1` [CYPROHEPTADINE], in test [2], the ED50 amounted to 0.4 mg/kg. Moreover, the Activity in test [13] came to 7.1%. For the same compound, the No. of animals result in [14] was “Active”. In addition, the Response in test [15] turned out to be 85.8 min⁻¹.

As to `COc1cc(CC(C)N)c(OC)cc1I` (racemic), the Activity in test [16] is on record as 63.1%; in test [17], 100%; in test [18], 37.5%. Besides, the Response is 79.5 min⁻¹ in [19], 74.7 min⁻¹ in test [20] and 81.3 min⁻¹ in test [21].

Turning to `CN1CCN(c2nc(-c3cccs3)cc(-c3cccs3)n2)CC1`, the figures for the Ki in test [1] and in test [9] were 8 nM and 972 nM, respectively.

Turning to `CN1CCN(c2nc(-c3ccoc3)cc(-c3ccco3)n2)CC1`, the figures for the Ki in test [1] and in test [9] were 13 nM and 415 nM, respectively. Also, in test [2], the ED50 came out at 2.7 mg/kg. The Activity in [3] amounted to 4%. For the same compound, the No. of animals result in test [22] is “Active”. For the same compound, the Response in test [7] came out at 85.1 min⁻¹.

For `CN1CCN(c2nc(-c3ccccc3)cc(-c3ccoc3)n2)CC1`, the values for the Ki in test [1] and in [9] were 9 nM and 1340 nM, respectively. Further, in test [2], the ED50 is 3.9 mg/kg. In addition, the Activity in [3] worked out at 7.2%. Moreover, the No. of animals result in test [23] was “Active”. The Response in test [7] worked out at 86.6 min⁻¹.

Consider `CN1CCN(c2nc(-c3ccoc3)cc(-c3cccs3)n2)CC1`, for which the results for the Ki in [1] and in test [9] were 10 nM and 2240 nM, respectively. For the same compound, the ED50 in test [2] was 4.2 mg/kg. Also, the Activity is listed as 47.3% in test [3] and 11.2% in [24]. Also, the No. of animals entry in test [22] and in test [25] was “Active” each time. Moreover, the Response was 60.3 min⁻¹ in [7] and 66.2 min⁻¹ in test [26].

As for `Cc1cc(-c2ccoc2)nc(N2CCN(C)CC2)n1`, the results for the Ki in test [1] and in test [9] were 50 nM and 265 nM, respectively.

With `CN1CCN(c2nccc(-c3ccco3)n2)CC1`, the Ki in test [1] was determined as 745 nM; in [9], 810 nM.

Turning to `CN1CCN(c2nccc(-c3cccs3)n2)CC1`, the inhibition constant (Ki) in test [1] was 208 nM; in [9], 484 nM.
